The subject of one experiment is Mtb mc^26230. The experiment in a line: microbe, parasite or virus in culture. The class given is cell-based, Mycobacterium tuberculosis. The following applies: for MIC: Mycobacterium tuberculosis; for MIC (MIC99): Mtb mc^26230, 6 days, Table 1 and text.
A further experiment concerns THP-1 cells. The experiment is described as follows: Cytotoxicity assay in THP-1 cells. The class given is cell-based, Human. The following applies: for IC50: Homo sapiens, THP-1, 72 h, read-out: IC50 (reduces the viability of THP-1 cells by 50%); for SI, selectivity index (IC50/MIC): THP-1 IC50 / Mtb MIC.
Another experiment deals with mc^26230 pMV261. The experiment in a line: microbe, parasite or virus in culture. As to conditions: Mycobacterium tuberculosis, read-out: MIC, pMV261. The class given is cell-based.
Setting [1] is: read-out: MIC, mc^26230 (parental strain).

Values after ≈ are worked out from the molar mass of the structure shown. Like-named read-outs stand apart in the source and are kept apart here.

As usually defined, the IC50 is the concentration needed to halve the response being measured.

With `NNC(=O)c1ccncc1` [INH, isoniazid, reference compound], the MIC against Mtb mc^26230 worked out at 0.039 µg/mL (≈ 0.284 µM); with Mtb mc^26230 (read-out: MIC, Wild-type), 0.078 µg/mL (≈ 0.569 µM); with Mtb mc^26230 (setting [1]), 0.039 µg/mL (≈ 0.284 µM); in the experiment with mc^26230 pMV261 it was 0.078 µg/mL (≈ 0.569 µM). For the same molecule, the IC50 with THP-1 cells was over 100 µg/mL. Also, the “SI, selectivity index (IC50/MIC)” value with THP-1 cells is given as over 100.
As for `O=C1N=C(NNC(=O)c2ccncc2)S/C1=C\c1ccc(F)cc1` [9j], the “MIC (MIC99)” value in the experiment with Mtb mc^26230 was 12.5 µg/mL (≈ 36.5 µM). In addition, the MIC in the experiment with Mtb mc^26230 is 12.5 µg/mL (≈ 36.5 µM); in the experiment on Mtb mc^26230 (read-out: MIC, Wild-type), 12.5 µg/mL (≈ 36.5 µM); in the experiment on Mtb mc^26230 (setting [1]), 12.5 µg/mL (≈ 36.5 µM); in the experiment with mc^26230 pMV261 it was 12.5 µg/mL (≈ 36.5 µM). Further, in the experiment with THP-1 cells, the IC50 is 18 µg/mL (≈ 52.6 µM). For the same molecule, in the experiment with THP-1 cells, the “SI, selectivity index (IC50/MIC)” value turned out to be 1.4.
For `Cc1ccccc1/C=C1\SC(NNC(=O)c2ccncc2)=NC1=O` [9d], the MIC against Mtb mc^26230 was determined as 1.56 µg/mL (≈ 4.61 µM); in the experiment with Mtb mc^26230 (read-out: MIC, Wild-type), 1.56 µg/mL (≈ 4.61 µM); in the experiment on Mtb mc^26230 (setting [1]) it was 1.56 µg/mL (≈ 4.61 µM); in the experiment on mc^26230 pMV261, 3.12 µg/mL (≈ 9.22 µM). The IC50 in the experiment on THP-1 cells came out at 21 µg/mL (≈ 62.1 µM). For the same molecule, the “SI, selectivity index (IC50/MIC)” value with THP-1 cells is 14.
For the molecule `O=C1N=C(NNC(=O)c2ccncc2)S/C1=C\c1ccc(Cl)cc1` [9n], in the experiment on Mtb mc^26230, the “MIC (MIC99)” value came out at 12.5 µg/mL (≈ 34.8 µM). The MIC against Mtb mc^26230 came to 12.5 µg/mL (≈ 34.8 µM); with Mtb mc^26230 (read-out: MIC, Wild-type), 12.5 µg/mL (≈ 34.8 µM); in the experiment with Mtb mc^26230 (setting [1]) it was 12.5 µg/mL (≈ 34.8 µM); in the experiment with mc^26230 pMV261, 25 µg/mL (≈ 69.7 µM).
Regarding `CO[C@H]1/C=C/O[C@@]2(C)Oc3c(C)c(O)c4c(O)c(c(/C=N/N5CCN(C)CC5)c(O)c4c3C2=O)NC(=O)/C(C)=C\C=C\[C@H](C)[C@H](O)[C@@H](C)[C@@H](O)[C@@H](C)[C@H](OC(C)=O)[C@@H]1C` [RIF, reference compound], the MIC was found to be 0.039 µg/mL (≈ 0.0474 µM) in the experiment with Mtb mc^26230 (read-out: MIC, Wild-type) and 0.039 µg/mL (≈ 0.0474 µM) with mc^26230 pMV261.
Regarding `O=C1N=C(NNC(=O)c2ccncc2)S/C1=C\c1ccccc1Cl` [9p], the MIC in the experiment on Mtb mc^26230 (setting [1]) turned out to be 25 µg/mL (≈ 69.7 µM).
As for `O=C1N=C(NNC(=O)c2ccncc2)S/C1=C\c1ccccc1F` [9l], the MIC with Mtb mc^26230 (setting [1]) was found to be 25 µg/mL (≈ 73 µM).

The record behind these values is PMC12400508 (RSC Advances, 2025).
